What was measured:
[1] = biological target: T1, D4 human receptors (Homo sapiens, UniProt P21917); assay: D4 Radioligand Receptor Binding Assay ([3H] YM-09151-2, CHO cell membranes); conditions: compound 10^−7 M, singlicate, [3H] YM-09151-2 0.15-0.25 nM
T1 construct: expressed in transfected cells; host or cells: CHO cells
T1 sequence (P21917 1-419): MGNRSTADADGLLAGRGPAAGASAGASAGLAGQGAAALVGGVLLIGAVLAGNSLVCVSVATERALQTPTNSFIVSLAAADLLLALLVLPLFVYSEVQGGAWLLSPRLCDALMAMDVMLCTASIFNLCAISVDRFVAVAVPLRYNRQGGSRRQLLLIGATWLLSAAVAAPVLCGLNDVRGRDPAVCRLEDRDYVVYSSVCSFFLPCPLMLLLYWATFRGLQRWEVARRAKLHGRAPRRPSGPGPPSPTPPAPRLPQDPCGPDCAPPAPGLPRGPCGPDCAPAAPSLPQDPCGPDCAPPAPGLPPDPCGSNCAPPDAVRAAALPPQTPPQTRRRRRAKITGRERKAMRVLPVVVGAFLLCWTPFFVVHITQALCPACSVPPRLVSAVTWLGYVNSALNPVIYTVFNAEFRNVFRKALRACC
Protocol: D4 Radioligand Receptor Binding Assay
Membranes from CHO cells expressing D4 human receptors, were suspended in incubation buffer.
Binding assays were performed in MultiProbe 204 pipetting system (Packard), according to a predetermined mapping, consistent with the software Screen. The compounds were tested in singlicate at one concentration (10^−7 M) in a total volume of 1000 μl (980 μl of diluted membranes, 10 μl DMSO or unlabelled ligand and 10 μl of [^3H] YM-09151-2 (0.15-0.25 nM). After incubation for 120 minutes at 27° C., the reaction was stopped by rapid filtration through Tomtec Cell Harvester (48 wells) using Filtermat B (presoaked in 0.1% PEI) filters. Filters were washed with ice-cold 50 mM Tris-HCl (pH 7.4) buffer (9×700 μl), dried, covered with MeltiLex B/HS (Wallac) scintillator sheets and heated in oven at 80° C. to 90° C. for about 10 minutes, transferred into plastic sample bags (Wallac), sealed, and put into 1024 Beta Plate scintillation counter (Wallac). Non-specific binding was determined in the presence of clozapine dissolved in DMSO to a final concentration of 10^−5 M.
The specific radioligand binding to the receptor was defined by the difference between total binding and non-specific binding, determined in the presence of an excess of unlabelled ligand. Results were expressed as percentage of control specific binding obtained in the presence of the compounds.

[2] = biological target: T2, 5-HT1A (Homo sapiens, UniProt P08908); assay: 5HT1A Radioligand Receptor Binding Assay ([3H]-8-OH-DPAT, CHO cell membranes); parameters: expressed in transfected cells; host or cells: CHO cells; conditions: CHO membranes, human 5-HT1A; for 5-HT1A Receptor Binding Assay % inhibition (10^−7 M) / inhibition at 0.1 µM: compound 10^−7 M, singlicate, [3H]-8-OH-DPAT 0.6-0.7 nM; for IC50: [3H]-8-OH-DPAT, read-out: 5-HT1A Receptor Binding IC50
T2 sequence (P08908 1-422): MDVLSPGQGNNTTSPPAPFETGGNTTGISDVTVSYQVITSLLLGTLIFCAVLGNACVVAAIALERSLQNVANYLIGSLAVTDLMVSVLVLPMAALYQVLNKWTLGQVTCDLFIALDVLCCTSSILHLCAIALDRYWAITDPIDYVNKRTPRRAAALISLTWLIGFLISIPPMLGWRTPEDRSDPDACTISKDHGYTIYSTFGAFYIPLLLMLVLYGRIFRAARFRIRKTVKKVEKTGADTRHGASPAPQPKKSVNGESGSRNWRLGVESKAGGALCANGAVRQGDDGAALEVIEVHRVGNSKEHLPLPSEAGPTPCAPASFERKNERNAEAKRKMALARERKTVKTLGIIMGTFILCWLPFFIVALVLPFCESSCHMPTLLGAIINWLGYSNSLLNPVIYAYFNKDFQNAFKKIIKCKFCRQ
Protocol: 5HT1A Radioligand Receptor Binding Assay
Membranes from CHO cells, expressing 5-HT1A human receptors were suspended in incubation buffer.
Binding assays were performed in MultiProbe 204 pipetting system (Packard), according to a predetermined mapping, consistent with the software Screen. The compounds were tested in singlicate at one concentration (10^−7 M) in a total volume of 1000 μl. 980 μl of diluted membranes, 10 μl DMSO or unlabelled ligand and 10 μl of [^3H]-8-OH-DPAT (0.6-0.7 nM) were incubated for 60 minutes at 27° C. The reaction was stopped by rapid filtration through Tomtec Cell Harvester (48 wells) using Filtermat B (presoaked in 0.1% PEI) filters. Filters were washed with ice-cold 50 mM Tris-HCl (pH 7.4) buffer (9×700 μl), dried, covered with MeltiLex B/HS scintillator sheets (Wallac) and heated at 80° C. to 90° C. for about 10 minutes, transferred into plastic sample bags (Wallac), sealed, and put into 1024 Beta Plate scintillation counter (Wallac). Non-specific binding was determined in the presence of 5-HT (10^−5 M).
The specific radioligand binding to the receptor was defined by the difference between total binding and non-specific binding, determined in the presence of an excess of unlabelled ligand. Results were expressed as percentage of control specific binding obtained in the presence of the compounds. The affinity values (IC50) for the compounds were obtained by a nonlinear least squares regression analysis on the basis of a one binding site model.

SMILES | D4 Receptor Binding Assay % inhibition (10^−7 M) [1] | 5-HT1A Receptor Binding Assay % inhibition (10^−7 M) [2] | inhibition at 0.1 µM [1] | IC50 [2] | inhibition at 0.1 µM [2]
O=c1n(CCO)c2ccccc2n1CCCCN1CCN(c2ccccc2)CC1 [Compound 56] | 71% | 63% |  |  | 
O=c1n(CCO)c2ccccc2n1CCCCN1CCN(c2ccccn2)CC1 [Compound 59] | 51% | 75% |  |  | 
O=c1n(CCO)c2ccccc2n1CCCCN1CC=C(c2ccccc2)CC1 [Compound 65] | 74% | 52% |  |  | 
O=c1n(CCO)c2ccccc2n1CCCCN1CCN(c2ccc(Cl)c(Cl)c2)CC1 [Compound 66] | 99% | 65% |  |  | 
COc1ccccc1N1CCN(CCCCn2c(=O)n(CCO)c3ccccc32)CC1 [Compound 74] | 62% | 92% |  |  | 
CCNC(=O)OCCn1c(=O)n(CCCCN2CCN(c3ccccc3)CC2)c2ccccc21 [Compound 75] | 54% | 67% |  |  | 
CCNC(=O)OCCn1c(=O)n(CCCCN2CCN(c3ccccn3)CC2)c2ccccc21 [Compound 78] | 44% | 69% |  |  | 
CCNC(=O)OCCn1c(=O)n(CCCCN2CCN(c3cccc(Cl)c3)CC2)c2ccccc21 [Compound 79] | 58% | 86% |  |  | 
CCNC(=O)OCCn1c(=O)n(CCCCN2CC=C(c3ccccc3)CC2)c2ccccc21 [Compound 84] | 42% | 52% |  |  | 
CCNC(=O)OCCn1c(=O)n(CCCCN2CCN(c3ccc(Cl)c(Cl)c3)CC2)c2ccccc21 [Compound 85] | 79% | 77% |  |  | 
CCNC(=O)OCCn1c(=O)n(CCCCN2CCN(c3cccc(C)c3C)CC2)c2ccccc21 [Compound 92] | 55% | 94% |  |  | 
CCNC(=O)OCCn1c(=O)n(CCCCN2CCN(c3ccccc3OC)CC2)c2ccccc21 [Compound 93] | 62% | 94% |  |  | 
CCNC(=O)OCCn1c(=O)n(CCCCN2CCN(c3cccc(C)c3)CC2)c2ccccc21 [Compound 94] | 72% | 88% |  |  | 
CCNC(=O)OCCn1c(=O)n(CCCCN2CCN(c3ccccc3C)CC2)c2ccccc21 [Compound 95] | 64% | 85% |  |  | 
CCNC(=O)OCCn1c(=O)n(CCCCN2CCN(c3ccccc3Cl)CC2)c2ccccc21 [Compound 96] | 72% | 92% |  |  | 
CC(=O)NCCn1c(=O)n(CCCCN2CCN(c3ccc(Cl)c(Cl)c3)CC2)c2ccccc21 [Compound 107] | 58% | 55% |  |  | 
CC(=O)NCCn1c(=O)n(CCCCN2CCN(c3ccccc3Cl)CC2)c2ccccc21 [Compound 118] | 36% | 80% |  |  | 
O=c1n(CCN2CCCCC2)c2ccccc2n1CCN1CCN(c2cccc(Cl)c2)CC1 [Compound 145] | 42% | 85% |  |  | 
O=c1n(CCN2CCCCC2)c2ccccc2n1CCN1CCN(c2cccc(C(F)(F)F)c2)CC1 [Compound 149] | 35% | 88% |  |  | 
O=c1n(CCN2CC=C(c3ccccc3)CC2)c2ccccc2n1CCN1CCCCC1 [Compound 150] | 52% | 57% |  |  | 
COc1ccccc1N1CCN(CCn2c(=O)n(CCN3CCCCC3)c3ccccc32)CC1 [Compound 159] | 50% | 85% |  |  | 
COCCn1c(=O)n(CCN2CC=C(c3ccccc3)CC2)c2ccccc21 [Compound 169] | 58% | 85% |  |  | 
O=c1n(CCO)c2ccccc2n1CCN1CCN(c2ccccn2)CC1 [Compound 182] | 45% | 62% |  |  | 
O=c1n(CCO)c2ccccc2n1CCN1CC=C(c2ccccc2)CC1 [Compound 188] | 78% | 78% |  |  | 
O=c1n(CCO)c2ccccc2n1CCN1CCN(c2ccc(Cl)c(Cl)c2)CC1 [Compound 189] | 99% | 54% |  |  | 
COc1ccccc1N1CCN(CCn2c(=O)n(CCO)c3ccccc32)CC1 [Compound 197] | 43% | 77% |  |  | 
CCNC(=O)OCCn1c(=O)n(CCN2CCN(c3ccccc3OC)CC2)c2ccccc21 [Compound 216] | 44% | 92% |  |  | 
O=c1n(C/C=C\CN2CCN(c3cccc(Cl)c3)CC2)c2ccccc2n1CCN1CCOCC1 [Compound 263] |  |  | 42% | 8.8 nM | 92%
COCCn1c(=O)n(C/C=C/CN2CCN(c3cccc(Cl)c3)CC2)c2ccccc21 [Compound 297] |  |  | 34% | 7.9 nM | 96%
O=c1n(C/C=C\CN2CCc3c([nH]c4ccccc34)C2)c2ccccc2n1CCN1CCCCC1 [Compound 316] | 94% | 72% |  |  | 
